# Test system: P12-Ichikawa
# Test: cell viability relative to DMSO control; higher = less cytotoxic
# Conditions: 48 h
# Procedure, shortened: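 In 1536-well plates, 5 μl of leukemia cells were seeded per well: 500 cells/well for NOMO1 or SEM and 1000 cells/well for P12-Ichikawa. Each line had first been adapted for at least four passages in each medium. Library compounds in DMSO were pin-dosed at 11 threefold concentrations between 47 μM and 0.79 nM, and CellTiter-Glo One luminescence was read after 48 h at 37°C. Viability is a per-plate percentage relative to DMSO wells, with cell-free wells as background.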
# [1] = HPLM + 10% dialyzed FBS, 0.000781 µM
# [2] = HPLM + 10% dialyzed FBS, 0.00234 µM
# [3] = HPLM + 10% dialyzed FBS, 0.00702 µM
# [4] = HPLM + 10% dialyzed FBS, 0.0211 µM
# [5] = HPLM + 10% dialyzed FBS, 0.0632 µM
# [6] = HPLM + 10% dialyzed FBS, 0.19 µM
# [7] = HPLM + 10% dialyzed FBS, 0.569 µM
# [8] = HPLM + 10% dialyzed FBS, 1.71 µM
# [9] = HPLM + 10% dialyzed FBS, 5.12 µM
# [10] = HPLM + 10% dialyzed FBS, 15.4 µM
# [11] = HPLM + 10% dialyzed FBS, 46.1 µM
# [12] = RPMI 5 mM glucose + 10% FBS, 0.000781 µM
# [13] = RPMI 5 mM glucose + 10% FBS, 0.00234 µM
# [14] = RPMI 5 mM glucose + 10% FBS, 0.00702 µM
# [15] = RPMI 5 mM glucose + 10% FBS, 0.0211 µM
# [16] = RPMI 5 mM glucose + 10% FBS, 0.0632 µM
# [17] = RPMI 5 mM glucose + 10% FBS, 0.19 µM
# [18] = RPMI 5 mM glucose + 10% FBS, 0.569 µM
# [19] = RPMI 5 mM glucose + 10% FBS, 1.71 µM
# [20] = RPMI 5 mM glucose + 10% FBS, 5.12 µM
# [21] = RPMI 5 mM glucose + 10% FBS, 15.4 µM
# [22] = RPMI 5 mM glucose + 10% FBS, 46.1 µM
# [23] = RPMI 5 mM glucose + 10% dialyzed FBS, 0.000781 µM
# [24] = RPMI 5 mM glucose + 10% dialyzed FBS, 0.00234 µM
# [25] = RPMI 5 mM glucose + 10% dialyzed FBS, 0.00702 µM
# [26] = RPMI 5 mM glucose + 10% dialyzed FBS, 0.0211 µM
# [27] = RPMI 5 mM glucose + 10% dialyzed FBS, 0.0632 µM
# [28] = RPMI 5 mM glucose + 10% dialyzed FBS, 0.19 µM
# [29] = RPMI 5 mM glucose + 10% dialyzed FBS, 0.569 µM
# [30] = RPMI 5 mM glucose + 10% dialyzed FBS, 1.71 µM
# [31] = RPMI 5 mM glucose + 10% dialyzed FBS, 5.12 µM
# [32] = RPMI 5 mM glucose + 10% dialyzed FBS, 15.4 µM
# [33] = RPMI 5 mM glucose + 10% dialyzed FBS, 46.1 µM
SMILES,cell viability [1],cell viability [2],cell viability [3],cell viability [4],cell viability [5],cell viability [6],cell viability [7],cell viability [8],cell viability [9],cell viability [10],cell viability [11],cell viability [12],cell viability [13],cell viability [14],cell viability [15],cell viability [16],cell viability [17],cell viability [18],cell viability [19],cell viability [20],cell viability [21],cell viability [22],cell viability [23],cell viability [24],cell viability [25],cell viability [26],cell viability [27],cell viability [28],cell viability [29],cell viability [30],cell viability [31],cell viability [32],cell viability [33]
CC(C)(C)NCC(O)c1ccc(O)c(CO)c1 (configuration not stated),117%,115%,114%,105%,119%,121%,110%,97.8%,90.5%,86.5%,80%,101%,116%,121%,114%,111%,113%,103%,103%,84.4%,71.4%,68.3%,94.9%,108%,109%,106%,105%,109%,102%,110%,80.8%,73.3%,68.4%
CN(C)C(=O)[C@H](O)[C@H](Cc1ccccc1)NC(=O)c1cc2cc(Cl)ccc2[nH]1,98.8%,110%,111%,114%,119%,115%,122%,127%,119%,80.3%,43.4%,95.3%,112%,109%,117%,119%,130%,130%,130%,113%,68.6%,51.5%,99.5%,118%,118%,119%,121%,131%,125%,133%,127%,94%,70%
CNC(=O)c1nn(C)c2c1C(C)(C)Cc1cnc(Nc3ccc(N4CCN(C)CC4)cc3)nc1-2,106%,107%,112%,105%,108%,111%,108%,83.7%,76%,36.7%,35.6%,113%,113%,119%,123%,117%,120%,109%,79%,65.4%,44.8%,26.4%,107%,119%,123%,123%,110%,115%,95.9%,77.1%,61.9%,36.1%,35.3%
C[C@@H](Cc1cc2c(c(C(N)=O)c1)N(CCCO)CC2)NCCOc1ccccc1OCC(F)(F)F,91.9%,115%,101%,116%,113%,112%,119%,114%,112%,118%,110%,99.4%,111%,106%,130%,116%,123%,115%,101%,112%,117%,102%,90.4%,104%,103%,105%,111%,109%,109%,110%,99.4%,109%,97.5%
CC[C@H](C)C(=O)O[C@H]1C[C@@H](C)\C=C2\C=C/[C@H](C)[C@H](CC[C@@H]3C[C@@H](O)CC(=O)O3)[C@@H]12,91.8%,94.1%,93.3%,91.4%,92.1%,87.7%,97.1%,91.7%,89.3%,64.5%,46.8%,76.3%,90.1%,87.6%,89.1%,84.5%,82.3%,89.6%,84.9%,83.1%,44.1%,24%,80%,89.8%,89.5%,85.5%,94.6%,88.3%,84.4%,77.9%,77.4%,54.8%,29.7%
NC(=O)N1CCC(CC(=O)N2CCC([C@H]3c4ncc(Br)cc4CCc4cc(Cl)cc(Br)c43)CC2)CC1,107%,116%,114%,114%,114%,108%,96.9%,95.2%,78.6%,71.9%,52.9%,107%,104%,125%,121%,117%,106%,87.6%,85.9%,75.4%,62.9%,42.5%,108%,108%,118%,112%,109%,110%,94.6%,90%,78.9%,69.7%,42.2%
COc1cc2cc(c1Cl)N(C)C(=O)C[C@H](OC(=O)C(C)C)[C@]1(C)O[C@@H]1[C@H](C)[C@@H]1C[C@@](O)(NC(=O)O1)[C@H](OC)/C=C/C=C(\C)C2,8.03%,10.4%,10%,9.14%,10.7%,8.31%,8.37%,6.69%,6.57%,5.07%,2.08%,9.26%,12.1%,11.2%,11.8%,11%,9.9%,8.75%,8.41%,6.23%,5.36%,2%,17.5%,18.1%,16.5%,14.6%,14.3%,12.9%,12.2%,10.2%,8.98%,8.07%,2.84%
CC1(C)[C@@H](O)CC[C@@]2(C)[C@H]1CC[C@]3(C)[C@@H]2C(=O)\C=C/4[C@@H]5C[C@](C)(CC[C@]5(C)CC[C@@]34C)C(O)=O,99.9%,125%,117%,112%,109%,118%,110%,113%,104%,102%,97.2%,109%,121%,116%,122%,114%,118%,110%,122%,100%,110%,111%,97.5%,105%,113%,113%,108%,104%,98.9%,106%,94.6%,103%,96.9%
CCC(=O)N1CCN(CC1)C2=C(C=C(C=C2)N3C(=O)\C=C/C4=C3C5=CC(=CC=C5N=C4)C6=CN=C7C=CC=CC7=C6)C(F)(F)F,89%,102%,99.2%,97.1%,82.9%,85.3%,81.8%,77.3%,73.8%,70.9%,77%,84.7%,90.8%,84%,75.5%,68%,65.3%,62.9%,61.3%,59.6%,56.5%,49.8%,86.4%,98.3%,97.6%,80.5%,77.2%,71.2%,68.4%,57.7%,60.8%,48.3%,54.4%
CC[C@H]1OC(=O)[C@H](C)[C@@H](O[C@H]2C[C@@](C)(OC)[C@@H](O)[C@H](C)O2)[C@H](C)[C@@H](O[C@@H]2O[C@H](C)C[C@H](N(C)C)[C@H]2O)[C@](C)(O)C[C@@H](C)/C(=N\OCOCCOC)[C@H](C)[C@@H](O)[C@]1(C)O,92.4%,96.1%,93.5%,90.4%,102%,87.8%,87.3%,82.9%,86.4%,76.9%,77.3%,81.3%,85%,84.9%,88.3%,94.3%,76.8%,72.4%,73.1%,82.3%,82.4%,79.6%,89.2%,90.1%,90.2%,91.6%,112%,72%,61.3%,85.2%,81.9%,71.5%,94.3%
COc1ccc(/C=C/C(=O)Nc2ccccc2C(=O)O)cc1OC,110%,111%,108%,112%,121%,108%,93.1%,100%,108%,99.3%,102%,112%,108%,113%,115%,113%,101%,107%,106%,107%,105%,102%,103%,101%,113%,114%,111%,110%,98.5%,80.4%,103%,98.5%,94.8%
O=C(O)c1cccnc1,107%,107%,115%,114%,106%,107%,106%,96.1%,68.9%,47.1%,35.8%,113%,112%,126%,113%,118%,119%,117%,110%,99.7%,55.8%,30.9%,110%,112%,106%,108%,108%,102%,105%,98.2%,76.5%,33.4%,9.03%
CCC[C@H](Nc1nc(-c2ccc(NC(=O)NCC)c(OC)c2)ncc1C)c1cccnc1,114%,115%,117%,120%,22.3%,11.4%,9.4%,8.46%,7.94%,7.62%,6.68%,125%,137%,123%,136%,21.8%,12.7%,11.7%,8.52%,8.89%,7.34%,6.34%,120%,125%,122%,124%,29.6%,18.1%,17.2%,10.4%,11%,10.1%,7.87%
CCC(=O)NC[C@H](Cc1ccc(OCCc2nc(-c3ccccc3)oc2C)cc1)N/C(C)=C\C(=O)c1ccc(C(F)(F)F)cc1,102%,97.6%,93.8%,104%,109%,106%,91.1%,99.1%,76%,35%,8.82%,95.8%,98%,103%,112%,106%,110%,77.7%,105%,66.7%,50.4%,7.18%,98.3%,99.4%,100%,104%,99.3%,99.7%,83.6%,86.8%,62.1%,53.3%,11.8%
